Reference: patent US9387261B2, “Immunoconjugates targeting CD138 and uses thereof” (priority 2007, dated 2016)
Entries after “also recorded” stand apart in the source; their conditions may differ.

Tests used:
[1] = higher; cited from earlier work
[2] = tested on: MOLP-8 human multiple myeloma xenografts; test: MOLP-8 xenograft mouse experiments A, Part I (single bolus i.v. injection); format: in vivo, CB.17 SCID mice; details: for effect on tumor growth compared with PBS-treated animals: single i.v. bolus, 250 μg/kg maytansinoid (nBT062 antibody […])
Experimental: In these mice, subcutaneous tumors were established (female CB.17 SCID mice) by inoculation with MOLP-8 cell suspensions. Treatment with a single bolus intravenous injection was conducted when tumor volumes reached an average 113 mm^3. Changes in tumor volume and body weight were monitored twice per week.
Female CB.17 SCID mice, five weeks old, were obtained from Charles River Laboratories.
MOLP-8, a human multiple myeloma cell line, was supplied from ATCC.
Each mouse was inoculated with 1×10^7 MOLP-8 cells subcutaneously into the area under the right shoulder. The total volume was 0.2 ml per mouse, in which the ratio of serum-free medium to matrigel (BD Bioscience, Bedford, Mass.) was 1/1 (v/v). Prior to treatment, the xenograft tumors were monitored daily and were allowed to become established.
Eleven days after tumor cell inoculation, 42 mice were selected based on tumor volumes and body weights. […] The forty-two mice were randomly divided into seven groups (A-G) of six animals each based on tumor volume.
Each of six mice in Group A received 200 μl of PBS as vehicle control.
All agents were intravenously administered as a single bolus injection through a lateral tail vein with a 1 ml syringe fitted with a 27 gauge, ½ inch needle.

MOLP-8 tumor xenografts = test: Bulky MOLP-8 tumor model, Part II / xenograft mouse experiments B (TGD, log cell kill); format: in vivo, SCID mice; details: 450 μg/kg dose; mean time to reach 160 mm^3 minus control
Experimental: In a second set of experiments, MOLP-8 cells (1.5×10^7 cells per mouse), suspended in a 50:50 mixture of serum free media and matrigel were injected subcutaneously in the area under the right shoulder in 100 μl. Tumor volumes reached about 80 mm^3 at day 11 and the mean of the controls was about 750 mm^3 at day 25, post cell inoculation. […] Each mouse in the control group (n=6) received 0.2 ml of sterile PBS administered into the lateral tail vein (i.v.) in a bolus injection. All treatment doses were based on conjugated maytansinoid. […] Mice were randomized into eleven groups (n=6) by tumor volume using the LabCat Program. The tumor volumes ranged from 40.0 to 152.5 mm^3. The mice were dosed based on the individual body weight.
Tumor size was measured twice per week in three dimensions using the LabCat System (Tumor Measurement and Tracking, Innovative Programming Associated, Inc., Princeton, N.J.).
In this set of experiments, eighty-five mice were inoculated with MOLP-8 cells (1.5×10^7 cells/mouse) subcutaneously in the right shoulder. […] Sixty-six SCID mice bearing bulky MOLP-8 tumors with a mean tumor volume of about 80 mm^3 were randomized into eleven treatment groups (n=6).

COc1cc2cc(c1Cl)N(C)C(=O)C[C@H](OC(=O)[C@H](C)N(C)C(C)=O)[C@]1(C)O[C@H]1[C@H](C)[C@@H]1C[C@@](O)(NC(=O)O1)[C@H](OC)/C=C/C=C(\C)C2 [maytansine]
cytotoxicity relative to anti-cancer drugs affecting tubulin polymerization (Vinca alkaloids, taxol) [1]: 200-1000 fold

B-B4-SPP-DM1: conjugate of the murine parental antibody B-B4 with DM1 via SPP linker
effect on tumor growth compared with PBS-treated animals [2]: marked delay in tumor growth | homogeneity of anti-tumor activity in individual mice ([2]; single i.v. dose 250 μg/kg, FIG. 9): more heterogeneously; also recorded: high binding variation

nBT062
effect on tumor growth compared with PBS-treated animals [2]: did not cause any significant inhibition of tumor growth | effect on tumor growth compared with PBS-treated animals ([2]; listed as huBT062): no significant impact on tumor growth

nBT062-DM1: nBT062 conjugate with DM1, linker not stated; TGD of 18 days matches nBT062-SMCC-DM1
TGD (days), tumor growth delay (MOLP-8 tumor xenografts): 18 days
